Results taken from patent publication US9403810B2, “Carboxamide derivatives” (Novartis AG, priority 2014, dated 2016).

Target: Smurf-1 (Homo sapiens (Human), UniProt Q9HCE7)
Assay: HECT E3 ligase autoubiquitinylation TR-FRET assay (Smurf-1)
Format: biochemical
Settings: 8-point dose-response curve, 3 nM to 10 uM; 45 min incubation
From the text: To determine the HECT E3 ligase selectivity of the compounds, a panel of biochemical HECT E3 ligase autoubiquitinylation assays was employed (Smurf-1, Smurf-2, WWP1, WWP2, ITCH, Nedd4, Nedd4L and E6AP). The conjugation of ubiquitin to a protein substrate is a multistep process. In an initial ATP-requiring step, a thioester bond is formed between the carboxyl terminus of ubiquitin and an internal cystein residue of the ubiquitin-activating enzyme (E1). Activated ubiquitin is then transferred to a specific cystein residue of an ubiquitin-conjugating enzyme (E2). E2s donate ubiquitin to a HECT E3 ligase (E3) from which it is transferred to the substrate protein. HECT E3 ligases can auto-ubiquitinylate. This event is detected in the TR-FRET (Time-Resolved Fluorescence Resonance Energy Transfer) assay used in this panel. The reaction mix contains E1, E2, tagged-E3, biotin-conjugated ubiquitin, the compound and ATP in a suitable buffer and is incubated for 45 minutes to allow auto-ubiquitinylation of the E3 ligase. To measure the extent of ubiquitinylated E3 ligase by TR-FRET, the donor fluorophore Europium cryptate (Eu3+ cryptate), conjugated to streptavidin which subsequently binds to biotinylated ubiquitin, and the modified allophycocyanin XL665 (HTRF® primary acceptor fluorophore) coupled to a tag-specific antibody (HA, His or GST), which recognizes the respective E3 ligase fusion proteins, are added after the reaction is complete. When these two fluorophores are brought together by a bimolecular interaction (in this case ubiquitinylation of the E3 ligase), a portion of the energy captured by the Cryptate during excitation is released through fluorescence emission at 620 nm, while the remaining energy is transferred to XL665. This energy is then released by XL665 as specific fluorescence at 665 nm. Light at 665 nm is emitted only through FRET with Europium.
Test and reference compounds are prepared at 180× [final] in 90% DMSO, and diluted 1:3 in 90% DMSO.
For the biochemical assay panel, 50 nl of the test compounds, reference compounds and buffer/DMSO control are transferred to the respective wells of a 384-well white GREINER “SMALL VOLUME” PS plate. The assay panel is run at room temperature on a Biomek FX liquid handling workstation. To the assay plates containing 50 nl compound or control solutions in 90% DMSO, 4.5 ul of E3 ligase solution were added per well, followed by 4.5 ul of the pre-incubated E1/E2/Ub mix or the pre-diluted ubiquitin (LOW control). Plates are shaken vigorously after each addition. In this assay the compound concentrations range from 3 nM to 10 uM in an 8-point dose-response curve.
After an incubation time of 45 min in the dark, the plates are transferred into the Pherastar fluorescence reader to measure the TR-FRET signal.

Smurf-1, sequence (Q9HCE7 whole entry): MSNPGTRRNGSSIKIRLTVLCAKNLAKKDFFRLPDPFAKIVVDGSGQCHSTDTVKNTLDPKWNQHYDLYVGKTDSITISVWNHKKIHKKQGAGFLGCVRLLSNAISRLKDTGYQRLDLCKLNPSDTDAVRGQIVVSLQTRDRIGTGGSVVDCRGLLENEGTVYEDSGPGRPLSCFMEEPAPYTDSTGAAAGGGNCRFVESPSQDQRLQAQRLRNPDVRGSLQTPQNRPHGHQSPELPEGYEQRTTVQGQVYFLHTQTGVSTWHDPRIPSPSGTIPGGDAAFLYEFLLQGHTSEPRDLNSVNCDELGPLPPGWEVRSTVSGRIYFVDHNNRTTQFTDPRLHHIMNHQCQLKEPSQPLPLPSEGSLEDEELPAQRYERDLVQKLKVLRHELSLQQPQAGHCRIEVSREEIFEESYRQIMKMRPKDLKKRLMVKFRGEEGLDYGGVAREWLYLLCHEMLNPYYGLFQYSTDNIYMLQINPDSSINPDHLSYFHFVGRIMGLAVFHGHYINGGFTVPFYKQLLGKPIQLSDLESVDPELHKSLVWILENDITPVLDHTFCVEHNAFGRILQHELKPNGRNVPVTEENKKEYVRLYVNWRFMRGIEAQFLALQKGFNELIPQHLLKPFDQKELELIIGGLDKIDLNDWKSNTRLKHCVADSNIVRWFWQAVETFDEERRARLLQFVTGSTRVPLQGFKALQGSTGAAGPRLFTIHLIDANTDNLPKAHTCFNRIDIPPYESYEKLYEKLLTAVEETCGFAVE

Row | SMILES | IC50 [nM]
1 | Cc1c(C(=O)Nc2c(C)n(C)n(C3CCCCC3)c2=O)noc1C1=CCC2(CCCC2)CC1 [Example 2, N-(2-Cyclohexyl-1,5-dimethyl-3-oxo-2,3-dihydro-1H-pyrazol-4-yl)-4-methyl-5-(spiro[4.5]dec-7-en-8-yl)isoxazole-3-carboxamide] | 2.5
2 | Cc1c(C(=O)Nc2c(C)n(C)n(C3CCCCC3)c2=O)noc1C1=CCCCC1(C)C [Example 1.2, N-(2-Cyclohexyl-1,5-dimethyl-3-oxo-2,3-dihydro-1H-pyrazol-4-yl)-5-(6,6-dimethylcyclohex-1-en-1-yl)-4-methylisoxazole-3-carboxamide] | 14
3 | Cc1c(C(=O)Nc2c(C)n(C)n(C3CCCCC3)c2=O)noc1C1CCC(C)(C)C1 (stereo not shown) [Example 6.1, N-(2-Cyclohexyl-1,5-dimethyl-3-oxo-2,3-dihydro-1H-pyrazol-4-yl)-5-(3,3-dimethylcyclopentyl)-4-methylisoxazole-3-carboxamide] | 23
4 | Cc1c(C(=O)Nc2c(C)n(C)n(C3CCCCC3)c2=O)noc1C1=CCC2(CCOC2)CC1 (stereo not shown) [Example 4, N-(2-Cyclohexyl-1,5-dimethyl-3-oxo-2,3-dihydro-1H-pyrazol-4-yl)-4-methyl-5-(2-oxaspiro[4.5]dec-7-en-8-yl)isoxazole-3-carboxamide] | 100
5 | Cc1c(C(=O)Nc2c(C)n(C)n(C3CCCCC3)c2=O)noc1C1=CCC(C)(C)CC1 [Example 2.2, N-(2-Cyclohexyl-1,5-dimethyl-3-oxo-2,3-dihydro-1H-pyrazol-4-yl)-5-(4,4-dimethylcyclohex-1-en-1-yl)-4-methylisoxazole-3-carboxamide] | 0.9
6 | Cc1c(C(=O)Nc2c(C)n(C)n(C3CCCCC3)c2=O)noc1C1CCC(C)(C)CC1 [Example 6, N-(2-Cyclohexyl-1,5-dimethyl-3-oxo-2,3-dihydro-1H-pyrazol-4-yl)-5-(4,4-dimethylcyclohexyl)-4-methylisoxazole-3-carboxamide] | 5.7
7 | Cc1c(C(=O)Nc2c(C)n(C)n(C3CCCCC3)c2=O)noc1C1=CCC(OC(C)C)CC1 (stereo not shown) [Example 5, N-(2-Cyclohexyl-1,5-dimethyl-3-oxo-2,3-dihydro-1H-pyrazol-4-yl)-5-(4-isopropoxycyclohex-1-en-1-yl)-4-methylisoxazole-3-carboxamide] | 310
8 | Cc1c(C(=O)Nc2c(C)n(C)n(C3CCCCC3)c2=O)noc1C1=CCCCCC1 [Example 1.6, 5-(Cyclohept-1-en-1-yl)-N-(2-cyclohexyl-1,5-dimethyl-3-oxo-2,3-dihydro-1H-pyrazol-4-yl)-4-methylisoxazole-3-carboxamide] | 8
9 | Cc1c(C(=O)Nc2c(C)n(C)n(C3CCCCC3)c2=O)noc1C1=CCC(C)(C)C1 [Example 3, N-(2-Cyclohexyl-1,5-dimethyl-3-oxo-2,3-dihydro-1H-pyrazol-4-yl)-5-(4,4-dimethylcyclopent-1-en-1-yl)-4-methylisoxazole-3-carboxamide] | 6
10 | Cc1c(C(=O)Nc2c(C)n(C)n(C3CCCCC3)c2=O)noc1/C=C/C(C)(C)C [Example 9, (E)-N-(2-Cyclohexyl-1,5-dimethyl-3-oxo-2,3-dihydro-1H-pyrazol-4-yl)-5-(3,3-dimethylbut-1-en-1-yl)-4-methylisoxazole-3-carboxamide] | 58
11 | CCC1CC(C)CC=C1c1onc(C(=O)Nc2c(C)n(C)n(C3CCCCC3)c2=O)c1C (stereo not shown) [Example 1.1, N-(2-Cyclohexyl-1,5-dimethyl-3-oxo-2,3-dihydro-1H-pyrazol-4-yl)-5-(6-ethyl-4-methylcyclohex-1-en-1-yl)-4-methylisoxazole-3-carboxamide] | 2.1

The next lines start with the values.

Row | IC50 [nM] | SMILES
12 | 2500 | CO[C@@H]1C[C@@H](C(C)(C)C)O[C@@H](c2onc(C(=O)Nc3c(C)n(C)n(C4CCC4)c3=O)c2C)C1.CO[C@@H]1C[C@@H](c2onc(C(=O)Nc3c(C)n(C)n(C4CCC4)c3=O)c2C)O[C@@H](C(C)(C)C)C1 (mixture of isomers) [Example 14, 5-((2R,4R,6S)-6-(tert-butyl)-4-methoxytetrahydro-2H-pyran-2-yl)-N-(2-cyclobutyl-1,5-dimethyl-3-oxo-2,3-dihydro-1H-pyrazol-4-yl)-4-methylisoxazole-3-carboxamide and 5-((2S,4S,6R)-6-(tert-butyl)-4-methoxytetrahydro-2H-pyran-2-yl)-N-(2-cyclobutyl-1,5-dimethyl-3-oxo-2,3-dihydro-1H-pyrazol-4-yl)-4-methylisoxazole-3-carboxamide]
13 | 730 | CO[C@H]1C[C@@H](c2onc(C(=O)Nc3c(C)n(C)n(C4CCCCC4)c3=O)c2C)O[C@@H](C(C)(C)C)C1 (single isomer, unassigned) [Example 13b, 5-((2S,4R,6R)-6-(tert-butyl)-4-methoxytetrahydro-2H-pyran-2-yl)-N-(2-cyclohexyl-1,5-dimethyl-3-oxo-2,3-dihydro-1H-pyrazol-4-yl)-4-methylisoxazole-3-carboxamide or 5-((2R,4S,6S)-6-(tert-butyl)-4-methoxytetrahydro-2H-pyran-2-yl)-N-(2-cyclohexyl-1,5-dimethyl-3-oxo-2,3-dihydro-1H-pyrazol-4-yl)-4-methylisoxazole-3-carboxamide]
14 | 37 | Cc1c(C(=O)Nc2c(C)n(C)n(C3CCCCC3)c2=O)noc1[C@@H]1CCC[C@H](C(C)(C)C)O1 (single isomer, unassigned) [Example 16, 5-((2S,6R)-6-(tert-butyl)tetrahydro-2H-pyran-2-yl)-N-(2-cyclohexyl-1,5-dimethyl-3-oxo-2,3-dihydro-1H-pyrazol-4-yl)-4-methylisoxazole-3-carboxamide or 5-((2R,6S)-6-(tert-butyl)tetrahydro-2H-pyran-2-yl)-N-(2-cyclohexyl-1,5-dimethyl-3-oxo-2,3-dihydro-1H-pyrazol-4-yl)-4-methylisoxazole-3-carboxamide]
15 | 290 | CO[C@H]1C[C@@H](c2onc(C(=O)Nc3c(C)n(C)n(C4CCCCC4)c3=O)c2C)O[C@@H](C(C)(C)C)C1 (single isomer, unassigned) [Example 13a, 5-((2S,4R,6R)-6-(tert-butyl)-4-methoxytetrahydro-2H-pyran-2-yl)-N-(2-cyclohexyl-1,5-dimethyl-3-oxo-2,3-dihydro-1H-pyrazol-4-yl)-4-methylisoxazole-3-carboxamide or 5-((2R,4S,6S)-6-(tert-butyl)-4-methoxytetrahydro-2H-pyran-2-yl)-N-(2-cyclohexyl-1,5-dimethyl-3-oxo-2,3-dihydro-1H-pyrazol-4-yl)-4-methylisoxazole-3-carboxamide]
16 | 630 | Cc1c(C(=O)Nc2c(C)n(C)n(C3CCCCC3)c2=O)noc1C1CC(Br)C(C)CO1 (stereo not shown) [Example 21.1, 5-(4-Bromo-5-methyltetrahydro-2H-pyran-2-yl)-N-(2-cyclohexyl-1,5-dimethyl-3-oxo-2,3-dihydro-1H-pyrazol-4-yl)-4-methylisoxazole-3-carboxamide]
17 | 580 | Cc1c(C(=O)Nc2c(C)n(C)n(C3CCCCC3)c2=O)noc1C1OCC(C)(C)CO1 [Example 26, N-(2-Cyclohexyl-1,5-dimethyl-3-oxo-2,3-dihydro-1H-pyrazol-4-yl)-5-(5,5-dimethyl-1,3-dioxan-2-yl)-4-methylisoxazole-3-carboxamide]
18 | 630 | Cc1c(C(=O)Nc2c(C)n(C)n(C3CCC3)c2=O)noc1[C@H]1CCC[C@@H](C(C)(C)C)O1 (single isomer, unassigned) [Example 15b, 5-((2R,6S)-6-(tert-butyl)tetrahydro-2H-pyran-2-yl)-N-(2-cyclobutyl-1,5-dimethyl-3-oxo-2,3-dihydro-1H-pyrazol-4-yl)-4-methylisoxazole-3-carboxamide or 5-((2S,6R)-6-(tert-Butyl)tetrahydro-2H-pyran-2-yl)-N-(2-cyclobutyl-1,5-dimethyl-3-oxo-2,3-dihydro-1H-pyrazol-4-yl)-4-methylisoxazole-3-carboxamide]
19 | 1800 | Cc1c(C(=O)Nc2c(C)n(C)n(C3CCCCC3)c2=O)noc1[C@@H]1CC=C[C@H](C)O1 (racemic) [Example 19, N-(2-cyclohexyl-1,5-dimethyl-3-oxo-2,3-dihydro-1H-pyrazol-4-yl)-4-methyl-5-((2S,6S)-6-methyl-3,6-dihydro-2H-pyran-2-yl)isoxazole-3-carboxamide and N-(2-cyclohexyl-1,5-dimethyl-3-oxo-2,3-dihydro-1H-pyrazol-4-yl)-4-methyl-5-((2R,6R)-6-methyl-3,6-dihydro-2H-pyran-2-yl)isoxazole-3-carboxamide]
